Assay results from patent US4032659A (priority 1975, dated 1977).
Read-outs that look alike come from different tables or passages of the source.

What was measured:
Herpes virus [1] = assay type: in vivo, mouse; details: oral
virus infections = assay: Antiviral screening program, several viruses; details: mouse, in vivo
Herpes virus [2] = assay: Herpes virus in eggs (chick embryo survival); assay type: in vivo, chicken eggs; details: all doses

## NNC(=S)NC12CC3CC(CC(C3)C1)C2
Herpes virus [1]; total dose 4pg
  No. animals surviving when 18/20 of controls are dead: 1
  Survivors: 1
Herpes virus [1]; total dose 40pg
  No. animals surviving when 18/20 of controls are dead: 1
  Survivors: 1
Herpes virus [1]; total dose 400pg
  No. animals surviving when 18/20 of controls are dead: 3
  Survivors: 3
Herpes virus [1]; total dose 4ng
  No. animals surviving when 18/20 of controls are dead: 2
  Survivors: 2
Herpes virus [1]; total dose 40ng
  No. animals surviving when 18/20 of controls are dead: 2
  Survivors: 2
Herpes virus [1]; total dose 400ng
  No. animals surviving when 18/20 of controls are dead: 3
  Survivors: 3

## NNc1nncc2ccccc12 [Hydralazine, hydralazine, reference compound]
Virus infections
  activity (in words): effective against Herpes virus

## NN.O=S(=O)(O)O [Hydrazine Sulfate, hydrazine sulfate]
Herpes virus [1]; total dose 5 μg
  Survivors: 2
Herpes virus [1]; total dose .0005 μg
  Survivors: 3
Herpes virus [1]; total dose .005 μg
  Survivors: 4
Herpes virus [1]; total dose .05 μg
  Survivors: 0
Herpes virus [1]; total dose .5 μg
  Survivors: 1

## NN [hydrazine]
Herpes virus [2]
  No. Living Longer Than Controls, total: 3
Herpes virus [1]; total dose 5 μg
  No. animals surviving after 7 days: 7
Herpes virus [1]; total dose .0005 μg
  No. animals surviving after 7 days: 5
  No. animals surviving when 19/20 controls are dead: 5
Herpes virus [1]; total dose .005 μg
  No. animals surviving after 7 days: 6
  No. animals surviving when 19/20 controls are dead: 3
Herpes virus [1]; total dose .05 μg
  No. animals surviving after 7 days: 5
Herpes virus [1]; total dose .5 μg
  No. animals surviving after 7 days: 6
  No. animals surviving when 19/20 controls are dead: 1

## N-hydroxyphthalamide
Virus infections
  activity (in words): active in the practice of this invention
